Six molecules from ChEMBL document CHEMBL1201862, “PubChem BioAssay data set” (2004) can be followed below.

Test [1] addresses T1, Small ubiquitin-related modifier 1 (Homo sapiens, UniProt P63165). Description: inhibitors of SUMO1 partner interactions, dose response, biochemical, FRET (AID 624383). It is filed as functional. Conditions: read-out: IC50_Mean.
In test [2] the target is T2, SUMO-activating enzyme (Homo sapiens, UniProt Q9UBT2). Description: inhibitors of in vitro SUMOylation cascade, primary screen, biochemical, HTRF, uHTS (AID 2006). It is filed as protein-complex assay. On the technique in general: TR-FRET usually uses a lanthanide donor and a delayed reading to cut background.
Test [3] concerns the target T3, Tyrosine-protein phosphatase non-receptor type 11 (Homo sapiens, UniProt Q06124).
T3 sequence (Q06124 whole entry): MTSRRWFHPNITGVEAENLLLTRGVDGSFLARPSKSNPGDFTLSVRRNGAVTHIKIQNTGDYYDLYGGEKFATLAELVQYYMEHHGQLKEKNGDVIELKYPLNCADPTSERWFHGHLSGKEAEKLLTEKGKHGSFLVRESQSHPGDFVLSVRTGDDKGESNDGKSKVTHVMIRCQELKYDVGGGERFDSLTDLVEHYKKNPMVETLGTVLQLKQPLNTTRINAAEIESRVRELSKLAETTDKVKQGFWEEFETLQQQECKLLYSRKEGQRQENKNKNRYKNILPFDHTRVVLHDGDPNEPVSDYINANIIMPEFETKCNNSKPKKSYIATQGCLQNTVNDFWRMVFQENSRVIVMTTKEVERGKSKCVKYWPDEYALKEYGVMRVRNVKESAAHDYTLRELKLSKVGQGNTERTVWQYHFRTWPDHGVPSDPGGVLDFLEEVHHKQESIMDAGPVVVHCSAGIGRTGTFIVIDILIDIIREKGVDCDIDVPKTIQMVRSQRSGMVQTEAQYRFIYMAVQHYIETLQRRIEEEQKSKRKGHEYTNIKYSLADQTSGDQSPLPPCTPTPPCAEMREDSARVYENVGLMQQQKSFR
The test is described as follows: SHP2 phosphatase inhibition, dose response, selectivity assay for STEP inhibitor project, biochemical (AID 602367). It is filed as functional. Conditions: read-out: IC50_Mean.

Test [4] addresses T1, Small ubiquitin-related modifier 1. Description: inhibitors of SUMO1 peptide binding, dose response, biochemical, fluorescence polarization, uHTS hits (AID 624382). It is filed as functional. The following applies: read-out: IC50_Mean.
The target of test [5] is T4, Low molecular weight phosphotyrosine protein phosphatase (Homo sapiens, UniProt P24666).
T4 sequence (P24666 whole entry): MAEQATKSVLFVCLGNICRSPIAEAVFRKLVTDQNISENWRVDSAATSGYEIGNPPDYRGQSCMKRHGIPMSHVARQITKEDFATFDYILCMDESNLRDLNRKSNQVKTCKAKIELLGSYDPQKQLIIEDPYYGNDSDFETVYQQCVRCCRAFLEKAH
In kind it is functional. Conditions: read-out: IC50_Mean.

In test [6] the target is T5, Carboxy-terminal domain RNA polymerase II polypeptide A small phosphatase 1 (Homo sapiens, UniProt Q9GZU7).
T5 sequence (Q9GZU7 whole entry): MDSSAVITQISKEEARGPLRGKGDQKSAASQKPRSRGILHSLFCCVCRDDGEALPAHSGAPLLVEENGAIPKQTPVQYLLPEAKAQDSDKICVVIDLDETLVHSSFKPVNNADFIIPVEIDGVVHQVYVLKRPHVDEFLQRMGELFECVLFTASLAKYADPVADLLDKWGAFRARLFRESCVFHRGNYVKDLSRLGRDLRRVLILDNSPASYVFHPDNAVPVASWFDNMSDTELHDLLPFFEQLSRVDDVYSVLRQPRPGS
Description: inhibitors of CTDSP1, concentration-response testing, biochemical assay, absorbance-based, actives from ultra-high-throughput screening (AID 540297). In kind it is functional.

Test [7] concerns the target T6, Tyrosine-protein phosphatase non-receptor type 5 (Homo sapiens, UniProt P54829).
T6 sequence (P54829 whole entry): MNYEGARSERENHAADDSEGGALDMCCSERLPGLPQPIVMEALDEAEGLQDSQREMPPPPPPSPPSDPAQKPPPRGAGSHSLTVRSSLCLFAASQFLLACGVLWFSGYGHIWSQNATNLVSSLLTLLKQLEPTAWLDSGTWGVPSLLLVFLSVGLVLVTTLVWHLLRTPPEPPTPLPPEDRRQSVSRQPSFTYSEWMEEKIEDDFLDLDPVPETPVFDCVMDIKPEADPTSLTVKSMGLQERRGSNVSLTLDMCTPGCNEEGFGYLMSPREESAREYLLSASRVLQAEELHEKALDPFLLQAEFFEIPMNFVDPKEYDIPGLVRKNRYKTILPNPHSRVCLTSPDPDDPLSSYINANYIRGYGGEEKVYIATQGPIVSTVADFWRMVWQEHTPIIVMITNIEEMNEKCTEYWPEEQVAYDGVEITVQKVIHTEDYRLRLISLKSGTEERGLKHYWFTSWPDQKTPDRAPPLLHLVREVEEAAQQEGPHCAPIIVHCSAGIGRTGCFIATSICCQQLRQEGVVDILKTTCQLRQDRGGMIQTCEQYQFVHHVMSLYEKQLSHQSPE
The test is described as follows: STEP phosphatase inhibitors, confirmation, biochemical, fluorescence intensity, uHTS hits (AID 602372). In kind it is functional. The following applies: read-out: IC50_Mean.

In test [8] the target is T2, SUMO-activating enzyme. The test is described as follows: SUMOylation inhibitor hit validation, confirmation, SUMOylation inhibitor project, biochemical, AlphaScreen (AID 2018). In kind it is functional. For orientation: Alpha assays give light when donor and acceptor beads are brought close together.
Test [9] deals with T7, Tyrosine-protein phosphatase non-receptor type 22 (Homo sapiens, UniProt Q9Y2R2).
T7 sequence (Q9Y2R2 whole entry): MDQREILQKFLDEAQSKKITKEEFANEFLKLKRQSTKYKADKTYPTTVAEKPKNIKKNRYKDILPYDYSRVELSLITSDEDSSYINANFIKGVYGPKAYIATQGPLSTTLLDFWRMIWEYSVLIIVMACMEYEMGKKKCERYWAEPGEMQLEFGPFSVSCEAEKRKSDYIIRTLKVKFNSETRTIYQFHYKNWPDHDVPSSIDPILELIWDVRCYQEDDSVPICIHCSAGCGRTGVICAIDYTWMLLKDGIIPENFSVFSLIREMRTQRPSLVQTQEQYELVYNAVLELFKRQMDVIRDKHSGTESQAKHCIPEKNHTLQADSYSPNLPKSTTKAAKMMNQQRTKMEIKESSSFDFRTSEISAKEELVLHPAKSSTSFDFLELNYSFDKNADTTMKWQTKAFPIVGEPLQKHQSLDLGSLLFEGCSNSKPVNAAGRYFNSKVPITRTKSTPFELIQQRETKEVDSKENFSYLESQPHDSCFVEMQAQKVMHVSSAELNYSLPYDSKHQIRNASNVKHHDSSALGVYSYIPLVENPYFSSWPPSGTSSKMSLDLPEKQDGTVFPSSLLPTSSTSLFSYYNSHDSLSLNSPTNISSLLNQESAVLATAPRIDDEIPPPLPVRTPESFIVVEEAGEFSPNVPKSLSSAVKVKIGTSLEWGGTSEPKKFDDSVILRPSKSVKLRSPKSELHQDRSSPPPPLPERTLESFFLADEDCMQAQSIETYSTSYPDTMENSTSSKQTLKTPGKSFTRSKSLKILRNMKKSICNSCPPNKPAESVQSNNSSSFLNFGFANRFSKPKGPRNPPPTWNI
Description: PTPN22 phosphatase inhibition, dose response, selectivity assay for STEP inhibitor project, biochemical (AID 624241). It is filed as functional.

For test [10], the target named is Dual specificity protein phosphatase 3 (Homo sapiens, UniProt P51452). Description: VHR phosphatase inhibition, dose response, selectivity assay for STEP inhibitor project, biochemical (AID 602374). In kind it is functional. Conditions: read-out: IC50_Mean.
The target of test [11] is 5-hydroxytryptamine receptor 2A (Mus musculus, UniProt P35363). In kind it is functional, cell-based.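 Note: CHO-K1 cells with tagged receptor and beta-arrestin; agonist potency measured as compound-induced activation of the receptor.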
Another test deals with Mu-type opioid receptor (Homo sapiens, UniProt P35372). It is filed as functional, cell-based.
Test [12] can be described thus: Luminescence Cell-Based Dose Retest to Confirm Inhibitors of Cancer Stem Cells. [Related pubchem assays (depositor defined):AID2717, AID2721]. Conditions: Homo sapiens. It is filed as functional.
The target in test [13] is Nuclear receptor subfamily 0 group B member 1 (Homo sapiens, UniProt P51843). In kind it is functional, cell-based.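 Note: HEK293T cells transfected with SF-1 and DAX-1 plus StAR promoter luciferase reporter.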
The next test in a line: cells. In kind it is functional, cell-based.
Test [14] has as its target T4, Low molecular weight phosphotyrosine protein phosphatase. In kind it is functional. The following applies: read-out: IC50_Mean. The source holds these as a separate data set.
Test [15] in a line: ADAM10 protease inhibitors, dose response, selectivity assay for ADAM17 exosite inhibitor project, biochemical, FRET peptide substrate, recombinant human ADAM10 (AID 743259).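 Note: ADAM10 enzyme cleaving a FRET peptide substrate.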
Test [16] deals with Disintegrin and metalloproteinase domain-containing protein 17 (Homo sapiens, UniProt P78536). The test is described as follows: exosite inhibitors of ADAM17, dose response, biochemical (AID 743260).
The target of test [17] is Heat shock protein HSP 90-alpha (Homo sapiens, UniProt P07900). In kind it is functional, organism-based.
Test [18] concerns the target T8, Botulinum neurotoxin type A (Clostridium botulinum (strain Hall / ATCC 3502 / NCTC 13319 / Type A), UniProt P0DPI1). Description: Confirmatory FRET assay using full length substrates for Botulinum neurotoxin light chain A protease, with Powder Set01. In kind it is functional.
For test [19], the target named is T9, Lethal factor (Bacillus anthracis, UniProt P15917). Description: High-throughput multiplex microsphere dose response for inhibitors of toxin protease, specifically Lethal Factor protease, compounds from Powder Set 01. The following applies: read-out: EC50_MICROM. It is filed as functional, Bacillus anthracis str. A2012.
Test [20] concerns the target T8, Botulinum neurotoxin type A. Description: High-throughput multiplex microsphere dose response for inhibitors of toxin protease, specifically Botulinum neurotoxin light chain A protease, compounds from Powder Set 01. It is filed as functional, Clostridium botulinum A str. ATCC 3502. Conditions: read-out: EC50_MICROM.
Test [21] deals with T9, Lethal factor. The test is described as follows: High-throughput multiplex microsphere dose response for inhibitors of toxin protease, specifically Lethal Factor protease, compounds from Cherry Pick 02. It is filed as functional. Conditions: read-out: EC50_MICROM.
In test [22] the target is Botulinum neurotoxin type F (Clostridium botulinum, UniProt P30996). The test is described as follows: High-throughput multiplex microsphere dose response for inhibitors of toxin protease, specifically Botulinum neurotoxin light chain F protease, compounds from Cherry Pick 02. It is filed as functional. Conditions: read-out: EC50_MICROM.

For orientation: AC50 means the concentration at which the activity in the assay is half-maximal.

Active and inactive are the calls of the source. A value given as a limit tells only on which side of the number the result lay.

T9 sequence (P15917 whole entry): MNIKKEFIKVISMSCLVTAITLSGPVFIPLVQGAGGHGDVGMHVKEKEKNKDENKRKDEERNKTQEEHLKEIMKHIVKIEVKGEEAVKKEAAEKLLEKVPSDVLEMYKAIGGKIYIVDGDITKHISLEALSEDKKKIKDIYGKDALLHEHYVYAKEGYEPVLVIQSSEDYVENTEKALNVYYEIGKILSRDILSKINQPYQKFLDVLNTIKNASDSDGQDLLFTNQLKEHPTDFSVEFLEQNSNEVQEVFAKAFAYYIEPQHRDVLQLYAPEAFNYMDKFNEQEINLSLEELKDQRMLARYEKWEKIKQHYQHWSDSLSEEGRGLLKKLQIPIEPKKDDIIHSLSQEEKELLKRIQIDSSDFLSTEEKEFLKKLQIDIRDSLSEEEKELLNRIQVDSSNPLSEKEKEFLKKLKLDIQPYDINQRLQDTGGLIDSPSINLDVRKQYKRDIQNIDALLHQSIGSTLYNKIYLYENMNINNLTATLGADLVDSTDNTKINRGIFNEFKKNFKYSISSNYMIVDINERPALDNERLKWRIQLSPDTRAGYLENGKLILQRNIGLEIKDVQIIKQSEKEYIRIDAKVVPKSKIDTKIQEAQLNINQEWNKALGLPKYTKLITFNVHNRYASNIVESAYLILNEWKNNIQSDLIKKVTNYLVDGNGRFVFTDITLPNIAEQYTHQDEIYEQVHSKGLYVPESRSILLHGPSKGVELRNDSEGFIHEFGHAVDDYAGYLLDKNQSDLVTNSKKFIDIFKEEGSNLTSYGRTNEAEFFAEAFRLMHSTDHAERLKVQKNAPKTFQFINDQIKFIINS
T2 sequence (Q9UBE0 whole entry): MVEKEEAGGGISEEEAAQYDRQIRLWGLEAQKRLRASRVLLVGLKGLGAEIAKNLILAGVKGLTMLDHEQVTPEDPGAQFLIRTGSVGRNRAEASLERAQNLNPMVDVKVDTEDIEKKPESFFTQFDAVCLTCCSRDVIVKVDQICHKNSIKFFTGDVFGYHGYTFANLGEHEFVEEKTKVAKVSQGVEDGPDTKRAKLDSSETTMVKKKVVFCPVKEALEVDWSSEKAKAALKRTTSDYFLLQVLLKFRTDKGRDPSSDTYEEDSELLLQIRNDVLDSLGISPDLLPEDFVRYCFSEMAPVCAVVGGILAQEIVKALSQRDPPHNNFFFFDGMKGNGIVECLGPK
T2 sequence (Q9UBT2 whole entry): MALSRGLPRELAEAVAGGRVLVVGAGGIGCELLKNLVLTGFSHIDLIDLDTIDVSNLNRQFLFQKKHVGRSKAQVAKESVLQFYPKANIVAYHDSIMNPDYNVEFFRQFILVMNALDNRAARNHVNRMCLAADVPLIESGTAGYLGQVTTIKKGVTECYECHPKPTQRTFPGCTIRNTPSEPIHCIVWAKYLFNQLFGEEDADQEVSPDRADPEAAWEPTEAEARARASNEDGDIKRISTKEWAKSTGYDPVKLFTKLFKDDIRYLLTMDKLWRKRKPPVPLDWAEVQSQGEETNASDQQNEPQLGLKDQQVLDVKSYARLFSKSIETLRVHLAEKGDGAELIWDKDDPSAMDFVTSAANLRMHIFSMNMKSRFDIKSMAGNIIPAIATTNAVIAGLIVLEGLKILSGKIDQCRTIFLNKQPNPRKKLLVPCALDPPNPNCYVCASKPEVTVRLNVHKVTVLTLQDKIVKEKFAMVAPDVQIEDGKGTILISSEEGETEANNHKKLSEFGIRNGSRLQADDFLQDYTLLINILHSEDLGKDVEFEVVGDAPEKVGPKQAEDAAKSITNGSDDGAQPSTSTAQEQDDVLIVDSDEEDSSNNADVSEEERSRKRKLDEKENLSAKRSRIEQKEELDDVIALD
T8 sequence (P0DPI1 2-448 limits assumed): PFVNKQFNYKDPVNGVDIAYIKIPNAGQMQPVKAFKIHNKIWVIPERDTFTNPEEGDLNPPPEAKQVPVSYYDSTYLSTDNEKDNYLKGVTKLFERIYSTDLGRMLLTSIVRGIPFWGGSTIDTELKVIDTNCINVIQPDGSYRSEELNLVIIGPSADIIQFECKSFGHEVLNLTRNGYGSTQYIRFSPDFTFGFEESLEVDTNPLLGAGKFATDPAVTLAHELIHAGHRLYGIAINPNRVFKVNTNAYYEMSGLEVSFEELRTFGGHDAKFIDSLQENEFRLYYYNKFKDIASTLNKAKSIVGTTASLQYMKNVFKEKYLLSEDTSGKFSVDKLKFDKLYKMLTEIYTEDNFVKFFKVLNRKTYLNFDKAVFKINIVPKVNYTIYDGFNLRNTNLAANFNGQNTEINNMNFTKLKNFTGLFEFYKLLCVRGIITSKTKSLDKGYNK
T1 sequence (P63165 whole entry): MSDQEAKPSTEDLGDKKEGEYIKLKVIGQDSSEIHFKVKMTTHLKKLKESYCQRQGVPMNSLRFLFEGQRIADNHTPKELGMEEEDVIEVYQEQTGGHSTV
Chain of Dual specificity protein phosphatase 3 (P51452 whole entry): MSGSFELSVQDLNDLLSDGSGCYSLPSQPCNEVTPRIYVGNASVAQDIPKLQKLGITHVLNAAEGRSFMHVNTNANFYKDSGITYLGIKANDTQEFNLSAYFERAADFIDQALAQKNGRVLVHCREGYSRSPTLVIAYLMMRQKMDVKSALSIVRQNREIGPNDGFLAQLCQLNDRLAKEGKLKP
Chain of Nuclear receptor subfamily 0 group B member 1 (P51843 whole entry): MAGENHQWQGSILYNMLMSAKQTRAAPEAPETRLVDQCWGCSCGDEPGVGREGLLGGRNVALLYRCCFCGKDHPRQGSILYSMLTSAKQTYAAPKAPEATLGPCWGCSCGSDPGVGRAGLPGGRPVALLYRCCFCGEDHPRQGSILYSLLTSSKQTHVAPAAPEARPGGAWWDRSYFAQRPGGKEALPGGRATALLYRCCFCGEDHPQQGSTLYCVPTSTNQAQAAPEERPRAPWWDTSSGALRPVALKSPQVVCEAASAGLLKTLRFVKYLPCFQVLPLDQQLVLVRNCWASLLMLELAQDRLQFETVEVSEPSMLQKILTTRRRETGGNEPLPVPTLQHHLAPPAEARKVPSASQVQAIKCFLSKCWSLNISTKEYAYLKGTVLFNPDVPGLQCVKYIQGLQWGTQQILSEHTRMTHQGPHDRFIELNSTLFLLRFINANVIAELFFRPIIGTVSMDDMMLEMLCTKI
Chain of Disintegrin and metalloproteinase domain-containing protein 17 (P78536 whole entry, the tested form may be a part): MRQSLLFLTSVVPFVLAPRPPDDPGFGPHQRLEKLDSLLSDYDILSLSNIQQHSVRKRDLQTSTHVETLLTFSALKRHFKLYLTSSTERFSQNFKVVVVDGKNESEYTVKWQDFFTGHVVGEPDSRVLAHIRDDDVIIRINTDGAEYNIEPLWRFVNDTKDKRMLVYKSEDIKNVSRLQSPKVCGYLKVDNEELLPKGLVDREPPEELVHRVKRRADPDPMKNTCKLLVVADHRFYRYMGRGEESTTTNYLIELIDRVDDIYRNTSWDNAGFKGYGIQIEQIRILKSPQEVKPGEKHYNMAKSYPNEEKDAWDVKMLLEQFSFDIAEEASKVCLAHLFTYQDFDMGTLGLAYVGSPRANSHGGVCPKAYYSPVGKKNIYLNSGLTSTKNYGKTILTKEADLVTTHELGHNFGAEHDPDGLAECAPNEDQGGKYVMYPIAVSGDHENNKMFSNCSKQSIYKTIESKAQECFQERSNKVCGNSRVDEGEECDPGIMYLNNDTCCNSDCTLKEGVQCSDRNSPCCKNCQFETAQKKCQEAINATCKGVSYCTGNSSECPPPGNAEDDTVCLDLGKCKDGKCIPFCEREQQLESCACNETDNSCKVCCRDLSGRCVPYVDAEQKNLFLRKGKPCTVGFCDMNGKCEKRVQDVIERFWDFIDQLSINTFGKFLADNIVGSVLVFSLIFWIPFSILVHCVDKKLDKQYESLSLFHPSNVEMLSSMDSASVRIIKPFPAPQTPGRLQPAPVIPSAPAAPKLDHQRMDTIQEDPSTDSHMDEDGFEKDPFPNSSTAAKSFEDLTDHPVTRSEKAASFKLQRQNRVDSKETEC
Chain of Botulinum neurotoxin type F (P30996 1-436 limits assumed): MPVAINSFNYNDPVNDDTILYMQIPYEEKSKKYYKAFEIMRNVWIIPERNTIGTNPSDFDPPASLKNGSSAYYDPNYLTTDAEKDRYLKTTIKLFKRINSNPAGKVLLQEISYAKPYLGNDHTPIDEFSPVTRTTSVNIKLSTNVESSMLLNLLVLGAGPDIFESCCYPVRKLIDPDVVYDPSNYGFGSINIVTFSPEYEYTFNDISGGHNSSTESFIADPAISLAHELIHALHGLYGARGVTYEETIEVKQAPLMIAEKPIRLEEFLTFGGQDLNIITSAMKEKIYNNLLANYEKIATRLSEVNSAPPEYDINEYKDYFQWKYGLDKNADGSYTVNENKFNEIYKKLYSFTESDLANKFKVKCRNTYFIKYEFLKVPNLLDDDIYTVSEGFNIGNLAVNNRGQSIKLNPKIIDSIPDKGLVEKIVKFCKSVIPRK
Chain of 5-hydroxytryptamine receptor 2A (P35363 whole entry): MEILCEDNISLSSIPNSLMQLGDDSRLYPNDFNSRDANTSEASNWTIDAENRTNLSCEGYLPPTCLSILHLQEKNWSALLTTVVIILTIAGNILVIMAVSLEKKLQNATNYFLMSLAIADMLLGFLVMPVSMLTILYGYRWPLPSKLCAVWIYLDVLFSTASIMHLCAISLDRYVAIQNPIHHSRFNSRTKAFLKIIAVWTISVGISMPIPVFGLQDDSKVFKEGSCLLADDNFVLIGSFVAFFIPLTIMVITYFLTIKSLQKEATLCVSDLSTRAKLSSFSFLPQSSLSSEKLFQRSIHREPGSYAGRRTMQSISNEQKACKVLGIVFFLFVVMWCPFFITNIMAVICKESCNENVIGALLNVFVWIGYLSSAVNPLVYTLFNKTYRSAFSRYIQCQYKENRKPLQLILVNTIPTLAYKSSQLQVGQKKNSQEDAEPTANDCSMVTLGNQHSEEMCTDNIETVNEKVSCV

Turning to `Cc1c(CC(=O)O)c(=O)oc2c(C)c(OCc3ccc(F)cc3Cl)ccc12`, the IC50 in test [1] is 15.7 µM (active); at SUMO-activating enzyme [2], 12.5 µM (active); in test [3], 2.48 µM (active); in [4] it was > 66.6 µM (inactive); in [5], 11.5 µM (active); in test [6], 2.17 µM (active). The IC50 in [7] was 5.58 µM (active); on SUMO-activating enzyme [8], > 100 µM (inactive); in test [9], 12.7 µM (active); in test [10], 3.68 µM (active).
With `O=C(c1ccco1)N1CCN(Cc2ccc(Br)cc2)CC1`, the values for the EC50 (in test [11]; at Mu-type opioid receptor) were 2.24 µM (active) and 92.4 µM (inactive), respectively.
Turning to `CC(Nc1nc(-c2ccccc2)nc2ccccc12)c1ccccc1` (stereo not given), the AC50 in test [12] was 4.43 µM (active). The IC50 in [13] is > 67.5 µM (inactive); in [5] it was 23.1 µM (inactive); in “cells” it was > 67.5 µM (inactive); in [14], > 80 µM (inactive).
On to `OCCCn1c(C2CCCN2c2nc(-c3ccc(F)cc3)cs2)nc2cc(Cl)c(Cl)cc21` (stereo not given), for which the IC50 in test [15] and in [16] was > 69.5 µM (inactive) throughout. The AC50 in [17] is 5.05 µM (active).
Regarding `COc1ccc(C2CC(c3cccs3)=NN2c2nc(C)c(C(C)=O)s2)cc1OC` (stereo not given), the values for the EC50 (in test [18]; on Lethal factor [19]; in [20]) were 10.4 µM (active), 9.6 µM (active) and 7.5 µM (active), respectively.
With `CCCCCCCCC(c1nc2cc(C)c(C)cc2[nH]1)n1c(=O)c(-c2ccccc2Br)nc2ccccc21` (stereo not given), the EC50 on Lethal factor [21] is 17.9 µM (active); in [22] it was > 20 µM (inactive).
